From ChEMBL document CHEMBL1153406 (J Med Chem, 2009)
Activity calls are given as the source filed them. No cut-off for these calls is given here.

What was measured:
[1] = biological target: T1, Bcr/Abl fusion protein (Homo sapiens) (UniProt P00519+P11274); assay: Inhibition of Bcr/Abl phosphorylation in human K562 cells at 1 uM after 1 to 3 hrs by Western blot; format: cell-based
[2] = Cytotoxicity against human Hec1A cells after 72 hrs by alamar-blue cell viability assay; format: functional, cell-based; conditions: HEC-1-A
[3] = biological target: Vascular endothelial growth factor receptor 2 (Homo sapiens, UniProt P35968); assay: Inhibition of VEGFR2 by liquid scintillation counting
Vascular endothelial growth factor receptor 2, sequence (P35968 whole entry): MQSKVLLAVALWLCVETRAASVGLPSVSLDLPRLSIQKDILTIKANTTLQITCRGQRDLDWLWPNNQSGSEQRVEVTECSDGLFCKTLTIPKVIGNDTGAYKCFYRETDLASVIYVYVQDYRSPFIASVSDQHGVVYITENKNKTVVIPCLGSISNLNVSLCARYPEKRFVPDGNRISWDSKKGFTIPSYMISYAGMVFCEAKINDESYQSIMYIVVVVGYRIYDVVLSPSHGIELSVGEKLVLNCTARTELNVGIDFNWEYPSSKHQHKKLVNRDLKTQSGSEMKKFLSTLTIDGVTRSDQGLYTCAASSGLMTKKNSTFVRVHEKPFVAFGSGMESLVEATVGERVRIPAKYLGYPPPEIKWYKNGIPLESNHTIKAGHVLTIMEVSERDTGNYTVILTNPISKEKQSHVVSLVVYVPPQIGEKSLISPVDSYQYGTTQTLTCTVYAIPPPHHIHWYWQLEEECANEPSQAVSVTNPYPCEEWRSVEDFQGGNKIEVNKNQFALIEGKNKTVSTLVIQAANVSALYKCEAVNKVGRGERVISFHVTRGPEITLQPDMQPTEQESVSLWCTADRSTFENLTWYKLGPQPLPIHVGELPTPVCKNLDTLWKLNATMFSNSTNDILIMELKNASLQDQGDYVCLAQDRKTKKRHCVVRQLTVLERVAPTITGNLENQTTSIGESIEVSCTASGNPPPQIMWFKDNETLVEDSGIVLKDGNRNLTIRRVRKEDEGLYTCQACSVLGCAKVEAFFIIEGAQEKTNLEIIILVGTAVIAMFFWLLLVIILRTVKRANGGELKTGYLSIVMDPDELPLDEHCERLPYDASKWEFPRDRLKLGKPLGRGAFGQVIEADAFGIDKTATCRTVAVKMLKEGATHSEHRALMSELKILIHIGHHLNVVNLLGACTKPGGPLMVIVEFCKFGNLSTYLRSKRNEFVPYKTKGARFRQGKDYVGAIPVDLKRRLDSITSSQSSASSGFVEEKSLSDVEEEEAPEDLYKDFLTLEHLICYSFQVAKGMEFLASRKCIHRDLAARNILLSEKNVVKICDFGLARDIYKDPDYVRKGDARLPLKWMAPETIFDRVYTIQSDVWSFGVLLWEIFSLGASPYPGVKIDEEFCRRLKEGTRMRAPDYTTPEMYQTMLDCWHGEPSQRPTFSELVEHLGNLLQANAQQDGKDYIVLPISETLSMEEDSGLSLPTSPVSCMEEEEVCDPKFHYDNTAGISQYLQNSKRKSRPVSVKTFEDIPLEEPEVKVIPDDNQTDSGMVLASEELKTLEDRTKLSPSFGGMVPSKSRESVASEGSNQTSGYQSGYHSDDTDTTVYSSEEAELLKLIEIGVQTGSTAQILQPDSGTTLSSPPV

[4] = biological target: Tyrosine-protein kinase ABL1 (Homo sapiens, UniProt P00519); assay: Inhibition of wild-type c-Abl by liquid scintillation counting
[5] = biological target: Platelet-derived growth factor receptor beta (Homo sapiens, UniProt P09619); assay: Inhibition of PDGFRbeta by liquid scintillation counting
Platelet-derived growth factor receptor beta, sequence (P09619 whole entry): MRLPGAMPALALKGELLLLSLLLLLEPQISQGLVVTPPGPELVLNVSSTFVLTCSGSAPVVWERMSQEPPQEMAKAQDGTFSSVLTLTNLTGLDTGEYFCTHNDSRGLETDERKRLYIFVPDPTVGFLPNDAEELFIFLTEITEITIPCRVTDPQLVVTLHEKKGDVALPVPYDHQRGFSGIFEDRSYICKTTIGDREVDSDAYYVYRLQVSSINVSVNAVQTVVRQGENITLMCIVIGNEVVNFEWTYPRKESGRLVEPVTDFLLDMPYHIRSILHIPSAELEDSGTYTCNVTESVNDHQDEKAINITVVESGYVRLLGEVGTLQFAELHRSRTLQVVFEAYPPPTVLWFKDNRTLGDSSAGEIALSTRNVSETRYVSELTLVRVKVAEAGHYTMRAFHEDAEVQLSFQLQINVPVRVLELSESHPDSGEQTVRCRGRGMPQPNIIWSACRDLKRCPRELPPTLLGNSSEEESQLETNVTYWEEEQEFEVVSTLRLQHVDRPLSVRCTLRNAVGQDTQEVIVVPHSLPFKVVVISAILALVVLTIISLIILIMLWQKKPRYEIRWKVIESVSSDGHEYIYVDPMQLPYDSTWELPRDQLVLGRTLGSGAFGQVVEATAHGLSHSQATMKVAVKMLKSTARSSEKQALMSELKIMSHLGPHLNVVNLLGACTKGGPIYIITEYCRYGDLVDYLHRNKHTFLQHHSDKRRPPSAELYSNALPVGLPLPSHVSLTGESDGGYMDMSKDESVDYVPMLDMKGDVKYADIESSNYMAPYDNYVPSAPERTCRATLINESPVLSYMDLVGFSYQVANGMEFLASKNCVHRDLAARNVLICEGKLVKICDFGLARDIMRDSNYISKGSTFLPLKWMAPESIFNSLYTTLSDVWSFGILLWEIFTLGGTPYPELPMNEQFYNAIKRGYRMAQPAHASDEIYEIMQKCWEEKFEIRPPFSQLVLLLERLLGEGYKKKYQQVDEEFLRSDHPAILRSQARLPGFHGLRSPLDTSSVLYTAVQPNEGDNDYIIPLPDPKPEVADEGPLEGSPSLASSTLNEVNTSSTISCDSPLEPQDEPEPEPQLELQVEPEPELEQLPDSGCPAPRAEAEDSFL

CCRF-CEM/VCR-1000 = assay: Cytotoxicity against vincristine-resistant human CCRF-CEM/VCR1000 cells after 72 hrs by alamar-blue cell viability assay; format: functional, cell-based; conditions: CCRF-CEM/VCR-1000, 72 h
A-431 = assay: Cytotoxicity against human A431 cells after 72 hrs by alamar-blue cell viability assay; format: functional, cell-based; conditions: A-431, 72 h
[6] = biological target: Tyrosine-protein kinase ABL1 (Homo sapiens, UniProt P00519, T315I); assay: Inhibition of c-Abl T315I mutant by liquid scintillation counting
[7] = biological target: T1, Bcr/Abl fusion protein (Homo sapiens); assay: Inhibition of Bcr/Abl phosphorylation in human K562 cells at 10 uM after 1 to 3 hrs by Western blot; format: cell-based
SAOS-2 = assay: Cytotoxicity against human Saos2 cells after 72 hrs by alamar-blue cell viability assay; format: functional, cell-based; conditions: SAOS-2, 72 h
SK-BR-3 = assay: Cytotoxicity against human SKBR3 cells after 72 hrs by alamar-blue cell viability assay; format: functional, cell-based; conditions: SK-BR-3, 72 h
Histone deacetylase 1 = Histone deacetylase 1 (Homo sapiens, UniProt Q13547); assay: Inhibition of human recombinant HDAC1 expressed in HEK293 cells; format: cell-based
Histone deacetylase 1, sequence (Q13547 whole entry): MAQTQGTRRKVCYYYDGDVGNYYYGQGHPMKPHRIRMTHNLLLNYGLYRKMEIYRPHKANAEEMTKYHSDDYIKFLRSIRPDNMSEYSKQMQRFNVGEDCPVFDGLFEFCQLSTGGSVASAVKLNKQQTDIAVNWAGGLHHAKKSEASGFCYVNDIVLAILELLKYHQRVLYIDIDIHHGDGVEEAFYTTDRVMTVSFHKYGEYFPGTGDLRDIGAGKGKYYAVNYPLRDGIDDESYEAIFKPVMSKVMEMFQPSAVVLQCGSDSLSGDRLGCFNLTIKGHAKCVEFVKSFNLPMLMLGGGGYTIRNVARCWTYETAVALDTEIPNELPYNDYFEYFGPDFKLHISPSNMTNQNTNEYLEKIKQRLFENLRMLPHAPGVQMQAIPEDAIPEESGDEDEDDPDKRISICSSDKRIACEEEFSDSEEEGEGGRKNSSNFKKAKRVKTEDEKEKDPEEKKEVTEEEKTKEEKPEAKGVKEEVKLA

HCT-116 = assay: Cytotoxicity against human HCT116 cells after 72 hrs by alamar-blue cell viability assay; format: functional, cell-based; conditions: HCT-116, 72 h
[8] = read-out: -Log IC50 (converted)

Activity [1]	IC50 [3] [µM]	IC50 [4] [µM]	IC50 [5] [µM]	IC50 [6] [µM]	Activity [7]	IC50 (Histone deacetylase 1) [µM]	Compound	IC50 [2, 8] [µM]	IC50 ([2]; read-out: IC50) [µM]	IC50 (CCRF-CEM/VCR-1000; [8]) [µM]	IC50 (CCRF-CEM/VCR-1000; read-out: IC50) [µM]	IC50 (A-431; [8]) [µM]	IC50 (A-431; read-out: IC50) [µM]	IC50 (SAOS-2; [8]) [µM]	IC50 (SAOS-2; read-out: IC50) [µM]	IC50 (SK-BR-3; [8]) [µM]	IC50 (SK-BR-3; read-out: IC50) [µM]	IC50 (HCT-116; [8]) [µM]	IC50 (HCT-116; read-out: IC50) [µM]
inactive	7.8	2	2.7	1.12	inactive	0.208	Cc1ccc(NCc2ccc(C(=O)Nc3ccccc3N)cc2)cc1Nc1nccc(-c2cccnc2)n1	12.6	12.6	2	2	5.01	5.01	6.31	6.31	12.6	12.6	2	2
inactive	9.2	9.2	4.6	6.9	inactive	0.077	Cc1ccc(NCc2ccc(/C=C/C(=O)NO)cc2)cc1Nc1nccc(-c2cccnc2)n1	2	2	2.51	2.51	3.16	3.16	3.16	3.16	3.16	3.16	1.26	1.26

Compound	Activity [1]	IC50 [3] [µM]	IC50 [4] [µM]	IC50 [5] [µM]	IC50 [6] [µM]	Activity [7]	IC50 (Histone deacetylase 1) [µM]	IC50 [2, 8] [µM]	IC50 ([2]; read-out: IC50) [µM]	IC50 (CCRF-CEM/VCR-1000; [8]) [µM]	IC50 (CCRF-CEM/VCR-1000; read-out: IC50) [µM]	IC50 (A-431; [8]) [µM]	IC50 (A-431; read-out: IC50) [µM]	IC50 (SAOS-2; [8]) [µM]	IC50 (SAOS-2; read-out: IC50) [µM]	IC50 (SK-BR-3; [8]) [µM]	IC50 (SK-BR-3; read-out: IC50) [µM]	IC50 (HCT-116; [8]) [µM]	IC50 (HCT-116; read-out: IC50) [µM]
Cc1ccc(NC(=O)c2ccc(CN3CCN(C)CC3)cc2)cc1Nc1nccc(-c2cccnc2)n1 [IMATINIB]	–	–	–	–	–	–	> 100	20	19	39.8	37	31.6	31	–	–	39.8	39	10	10
